Measurements published in patent US20260265245A1, “AROMATIC HETEROCYCLIC DERIVATIVE HAVING GLP-1 RECEPTOR AGONIST ACTIVITY” (Shionogi & Co., Ltd., priority 2021, published 2026).

Target: T1, Human GLP-1 receptor (Homo sapiens, UniProt P43220)
T1 construct: expressed in transfected cells
Assay: Measurement of GLP-1 receptor agonist activity (cAMP assay)
Assay type: cell-based
Conditions: hGLP-1R/CHO-K1 cells; for Emax: cAMP with 2 nM human GLP-1 (7-36) = 100%, DMSO only = 0%; for EC50: increase in cAMP concentration as index, 37° C., 1 hour
Description: Test Example 1: Measurement of GLP-1 Receptor Agonist Activity
Human GLP-1 receptor stably expressing cells (hGLP-1R/CHO-K1 cells) are cultured in an a-MEM medium (Sigma) containing 10% FBS (Hyclone), 2% GlutaMAX (Gibco), 1% G418 (Nacalai Tesque), and 1% Penicillin-Streptomycin Mixed Solution (Sigma) at 37° C. under 5% CO2 conditions, and recovered by treating a 10 fold diluted 5.0 g/l-trypsin/5.3 mmol/l-EDTA solution (Nacalai Tesque) and cryopreserved.
A DMSO solution containing the compound of the present invention or human GLP-1 (7-36) (Phoenix Pharmaceuticals) is dispensed into a 384-well microplate (Greiner) at 62.5 nL/well, and in addition, 400 μM Forskolin (Nacalai Tesque) is dispensed therein at 7.5 nL/well. Subsequently, the frozen GLP-1 R/CHO-K1 cells are thawed in a thermostatic bath at 37° C., suspended in HBSS buffer containing 0.1% BSA (Sigma), 20 mM HEPES (GIBCO), 0.1 mM IBMX (Sigma), and 0.2 mM RO20-1724 (Calbiochem) at 2×10^4 cells/mL, and the cell suspension is added at 6 μL/well. The solution was incubated at 37° C. for 1 hour and intracellular cAMP concentration is measured using CAMP Gs dynamic kit (Cisbio) according to the protocol attached to the product. Specifically, a cAMP-d2/Anti-cAMP-Cryptate (1/1) mixed solution is added in a total amount of 6 μL/well, the mixture is incubated at room temperature for 1 hour, and time-resolved fluorescence is measured using PHERAstar (BMG Labtech).
Assuming that the CAMP concentration when human GLP-1 (7-36) is dispensed to a final concentration of 2 nM is 100% and the CAMP concentration when only DMSO is dispensed is 0%, the 50% effective concentration (EC50) and the maximum effect (Emax) of the compound of the present invention are calculated using an increase in the CAMP concentration as an index, using TIBCO Spotfire (TIBCO Software). The dilution concentration or the dilution solvent are changed as necessary.
The compounds of the present invention were tested essentially as described above.

T1 sequence (P43220 24-463): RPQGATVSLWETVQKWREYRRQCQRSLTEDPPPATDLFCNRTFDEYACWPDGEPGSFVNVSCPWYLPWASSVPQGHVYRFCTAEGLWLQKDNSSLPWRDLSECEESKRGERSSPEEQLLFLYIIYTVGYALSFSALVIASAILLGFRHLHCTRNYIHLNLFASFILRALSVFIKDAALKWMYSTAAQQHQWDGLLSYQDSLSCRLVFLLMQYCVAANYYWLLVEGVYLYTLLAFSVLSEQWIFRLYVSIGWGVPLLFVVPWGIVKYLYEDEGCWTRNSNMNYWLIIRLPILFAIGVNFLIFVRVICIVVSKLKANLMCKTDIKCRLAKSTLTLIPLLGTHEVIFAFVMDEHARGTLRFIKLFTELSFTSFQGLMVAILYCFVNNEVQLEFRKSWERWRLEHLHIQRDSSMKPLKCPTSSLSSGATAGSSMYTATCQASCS

SMILES | Emax [%] | EC50 [nM]
O=C(O)/C=C/c1c(Br)nc(CN2CCC(c3cccc(OCc4ccc(Cl)cc4F)n3)CC2)n1C[C@@H]1CCO1 [I - 003] | 107 | 0.401
Oc1nnc(-c2c(Br)nc(CN3CCC(c4cccc(OCc5ccc(Cl)cc5F)n4)CC3)n2C[C@@H]2CCO2)o1 [I - 004] | 97 | 7
C[C@]1(c2ccc(Cl)cc2F)Oc2cccc(C3CCN(Cc4nc(Cl)c(/C=C/C(=O)O)n4C[C@@H]4CCO4)CC3)c2O1 [I - 007] | 92 | 0.138
Cn1c(/C=C/C(=O)O)cnc1CN1CCC(c2cccc(OCc3ccc(Cl)cc3F)n2)CC1 [I - 001] | 63.7 | 181
Oc1nnc(-c2c(Cl)nc(CN3CCC(c4cccc(OCc5ccc(Cl)cc5F)n4)CC3)n2C[C@@H]2CCO2)o1 [I - 005] | 98.7 | 16.2
C[C@H]1c2nc(OCc3ccc(Cl)cc3F)c(C(F)(F)F)cc2CCN1Cc1ncc(/C=C/C(=O)O)n1C[C@@H]1CCO1 [I - 009] | 101 | 0.686
C[C@H]1c2nc(OCc3ccc(Cl)cc3F)c(Cl)cc2CCN1Cc1nc(Br)c(/C=C/C(=O)O)n1C[C@@H]1CCO1 [I - 010] | 96 | 0.151
C[C@H]1c2nc(OCc3ccc(Cl)cc3F)c(C(F)(F)F)cc2CCN1Cc1nc(Cl)c(/C=C/C(=O)O)n1C[C@@H]1CCO1 [I - 011] | 99.7 | 0.0965
C[C@H]1c2nc(OCc3ccc(Cl)cc3F)c(C(F)F)cc2CCN1Cc1nc(Cl)c(/C=C/C(=O)O)n1C[C@@H]1CCO1 [I - 012] | 117 | 0.283
O=C(O)/C=C/c1c(Cl)nc(CN2CCC(c3cccc(OCc4ccc(Cl)cc4F)n3)CC2)n1C[C@@H]1CCO1 [I - 006] | 118 | 1.41
C[C@H]1c2cc(OCc3ccc(Cl)cc3F)c(C(F)(F)F)cc2CCN1Cc1nc(Br)c(/C=C/C(=O)O)n1C[C@@H]1CCO1 [I - 008] | 105 | 0.368
Cn1c(CN2CCC(c3cccc(OCc4ccc(Cl)cc4F)n3)CC2)nc(Br)c1/C=C/C(=O)O [I - 002] | 85 | 31.5
